This note sets out measurements from patent US20210379057A1, “NUTLIN-3A FOR USE IN TREATING A MYCOBACTERIUM TUBERCULOSIS INFECTION” (Massachusetts Institute of Technology, priority 2018, published 2021).

The test system of series [1] is Mycobacterium tuberculosis (Mtb) in primary human CD14+ monocyte-derived macrophages. The class given is cell-based.
The subject of a further series is Mtb infected macrophages. The series is described as follows: Macrophage death in Mtb infected macrophages. As to conditions: Mtb infected macrophages treated with compound.
The test system of another series is p53. The class given is cell-based, human.

For the compound `Cc1ccc2nc(NCCN)c3ncc(C)n3c2c1` [BMS-345541], in series [1], the “Mtb control (bacterial survival, ratio of live GFP+ to total mCherry+ pixels)” value is “worsened bacterial control”.

Consider `O=C(Nc1cc(Cl)cc2c1[nH]c1cnccc12)c1cccnc1` [PS-1145], for which the “Mtb control (bacterial survival, ratio of live GFP+ to total mCherry+ pixels)” value in series [1] is recorded as “worsened bacterial control”.

With `NNC(=O)c1ccncc1` [isoniazid], the “GFP+/RFP+ pixel area” value in series [1] is given as “decrease in the GFP+/RFP+ pixel area”.

Regarding `COc1ccc(C2=N[C@@H](c3ccc(Cl)cc3)[C@@H](c3ccc(Cl)cc3)N2C(=O)N2CCNC(=O)C2)c(OC(C)C)c1` [nutlin-3a], the “Mtb control (bacterial survival, ratio of live GFP+ to total mCherry+ pixels)” value in series [1] was “significantly increased Mtb control”. Moreover, the macrophage death result in the series on Mtb infected macrophages is “without increasing macrophage death”. Moreover, in the series on p53, the “expression of p53” value was “enhanced expression of p53”.
